Data: patent US20040121304A1, “Method for screening for progesterone receptor isoform-specific ligands and for tissue-selective progesterone receptor ligands” (priority 2004, published 2004)

Experiments:
[1] = biological target: T1, hPR-A (progesterone receptor isoform A) (Homo sapiens, UniProt P06401); assay: Transactivation assay, SK-N-MC cells stably transfected with hPR-A and MTV-LUC reporter; assay type: cell-based; settings: for Emax / antagonism efficacy (PR-A): SK-N-MC hPR-A/MTV-LUC cells, 24 h incubation; for Emax: LUC activity relative to R5020 10^-7 mol/l = 100%, 1% ethanol = 0%, read-out: Agonism efficacy (PR-A); for antagonism efficacy (PR-A): inhibition of LUC induction by 10^-10 mol/l R5020
T1 construct: expressed in transfected cells; host or cells: SK-N-MC (human neuroblastoma) cells, stably transfected with phPR-2 (PR-A plasmid) plus pRSV-neo and pMTV-LUC
T1 sequence (P06401 1-769 isoform P06401-2): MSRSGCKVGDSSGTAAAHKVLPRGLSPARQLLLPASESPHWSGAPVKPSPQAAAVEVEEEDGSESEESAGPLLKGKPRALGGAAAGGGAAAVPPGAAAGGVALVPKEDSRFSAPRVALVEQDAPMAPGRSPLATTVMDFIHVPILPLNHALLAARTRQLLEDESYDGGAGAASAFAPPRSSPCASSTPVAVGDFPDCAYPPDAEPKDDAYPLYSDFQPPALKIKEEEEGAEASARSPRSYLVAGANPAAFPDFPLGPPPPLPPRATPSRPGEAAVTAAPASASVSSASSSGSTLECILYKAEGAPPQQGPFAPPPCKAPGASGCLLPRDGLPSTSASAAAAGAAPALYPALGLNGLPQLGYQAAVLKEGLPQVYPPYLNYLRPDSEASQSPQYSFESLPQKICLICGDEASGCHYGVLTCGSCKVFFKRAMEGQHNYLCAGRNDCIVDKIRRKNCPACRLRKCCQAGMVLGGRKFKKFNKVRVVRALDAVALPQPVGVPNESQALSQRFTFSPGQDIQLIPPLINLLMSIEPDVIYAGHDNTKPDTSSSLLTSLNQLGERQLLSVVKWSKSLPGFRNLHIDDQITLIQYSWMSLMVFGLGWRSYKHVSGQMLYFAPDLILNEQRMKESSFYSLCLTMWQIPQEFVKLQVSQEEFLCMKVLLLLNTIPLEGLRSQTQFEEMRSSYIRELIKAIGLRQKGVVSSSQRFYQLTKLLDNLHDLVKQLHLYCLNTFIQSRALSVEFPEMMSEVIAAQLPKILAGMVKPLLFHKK
Procedure: (§1) The method for screening for isoform-specific PR ligands according to the present invention is carried out with first and second SK-N-MC cells stably transfected with a plasmid expressing the hPR-A (first cells) or the hPR-B (second cells) and the LUC reporter gene linked to the hormonally responsive MTV promoter. A detailed description of how the cell lines according to the invention and used in this Example may be obtained is given in Example 5.
(§2) The cells are cultured in Minimum Essential Medium with Earl's Salts (S-MEM, without L-glutamine; Gibco BRL, no. 21090-022), supplemented with 10% fetal calf serum (FCS), penicillin 100U/streptomycin 100 μg/ml (Biochrom, no. A2213), L-glutamine 4 mmol/l (Gibco BRL, no. 25030-024), sodium pyruvate 1 mmol/l (Biochrom, no. L0473) and 1× non-essential amino acids (Biochrom, no. K0293) at a temperature of 37° C. and in an atmosphere of 5% carbon dioxide.
(§3) For the transactivation assay, the cells are seeded onto 96-well dishes (2×10^4 cells/dish) and cultured in a medium as described above, with the exception that the FCS is replaced by a 3% charcoal stripped FCS. 48 hours later, cells are contacted with prediluted test compounds. For determination of agonistic activity, cells are cultured in the presence of increasing concentrations (10^−6 to 10^−11 mol/l) of test compounds. As a positive control for reporter gene induction cells are treated with 10^−6 to 10^−11 mol/l R5020 (promegestone). As a negative control for reporter gene induction, cells are cultured in 1% ethanol. For determination of antagonistic activity, cells are treated with 10^−10 mol/l R5020 and additionally with increasing concentrations (10^−6 to 10^−11 mol/l) of test compounds. As a positive control for inhibition of reporter gene transcription, cells are cultured in increasing concentrations (10^−7 to 10^−12 mol/l) of the antiprogestin mifepristone. As a negative control for inhibition of reporter gene transcription, cells are cultured in 1% ethanol.
(§4) After incubation with test compounds for 24 hours, the medium is removed and cells are lysed with 20 μl of lysis buffer (Luciferase Assay System E 153A; Promega) and under agitation of the plate for 10 min. After addition of 30 μl of luciferase reagent (Luciferase Assay System E 151A+152A; Promega) within 30 seconds per plate, the activity of the luciferase reporter gene product is determined in the cell lysates by means of a Microlite ML 3000 microtiter plate luminometer (Dynatech) in cycle mode.
(§5) Evaluation of the response gives the efficacy [%] for both agonism and antagonism, and evaluation of the EC50 (for agonism) and IC50 (for antagonism) values gives the potency [nM]. Calculation of these values is conducted as follows:
(§6) Calculation of Agonistic Activity:
(§7) The LUC activity [%] for the measured data points is calculated as follows: [formula]
(§8) and CO=0% stimulation (ethanol, 1%).
(§9) Thus, the efficacy [%] is determined according to: [formula]
(§10) The potency [nM], i.e. the EC50, is determined graphically.
(§11) Calculation of Antagonistic Activity:
(§12) wherein CI=0% inhibition (R5020, 10^−10 mol/l) (corresponds to 100% stimulation)
(§13) and CO=100% inhibition (EtOH, 1%) (corresponds to 0% stimulation)
(§14) The potency [nM], i.e. the IC50, is determined graphically.

[2] = biological target: T2, hPR-B (progesterone receptor isoform B) (Homo sapiens, UniProt P06401); assay: Transactivation assay, SK-N-MC cells stably transfected with hPR-B and MTV-LUC reporter; assay type: cell-based; settings: for Emax / antagonism efficacy (PR-B): SK-N-MC hPR-B/MTV-LUC cells, 24 h incubation; for Emax: LUC activity relative to R5020 10^-7 mol/l = 100%, 1% ethanol = 0%, read-out: Agonism efficacy (PR-B); for antagonism efficacy (PR-B): inhibition of LUC induction by 10^-10 mol/l R5020; for Difference of agonism efficacies (PR-B - PR-A): indicating PR-B selectivity
T2 construct: expressed in transfected cells; host or cells: SK-N-MC (human neuroblastoma) cells, stably transfected with pRSVhPR-neo (built from pRC/RSV and hPR-1) and pMTV-LUC
T2 sequence (P06401 1-933): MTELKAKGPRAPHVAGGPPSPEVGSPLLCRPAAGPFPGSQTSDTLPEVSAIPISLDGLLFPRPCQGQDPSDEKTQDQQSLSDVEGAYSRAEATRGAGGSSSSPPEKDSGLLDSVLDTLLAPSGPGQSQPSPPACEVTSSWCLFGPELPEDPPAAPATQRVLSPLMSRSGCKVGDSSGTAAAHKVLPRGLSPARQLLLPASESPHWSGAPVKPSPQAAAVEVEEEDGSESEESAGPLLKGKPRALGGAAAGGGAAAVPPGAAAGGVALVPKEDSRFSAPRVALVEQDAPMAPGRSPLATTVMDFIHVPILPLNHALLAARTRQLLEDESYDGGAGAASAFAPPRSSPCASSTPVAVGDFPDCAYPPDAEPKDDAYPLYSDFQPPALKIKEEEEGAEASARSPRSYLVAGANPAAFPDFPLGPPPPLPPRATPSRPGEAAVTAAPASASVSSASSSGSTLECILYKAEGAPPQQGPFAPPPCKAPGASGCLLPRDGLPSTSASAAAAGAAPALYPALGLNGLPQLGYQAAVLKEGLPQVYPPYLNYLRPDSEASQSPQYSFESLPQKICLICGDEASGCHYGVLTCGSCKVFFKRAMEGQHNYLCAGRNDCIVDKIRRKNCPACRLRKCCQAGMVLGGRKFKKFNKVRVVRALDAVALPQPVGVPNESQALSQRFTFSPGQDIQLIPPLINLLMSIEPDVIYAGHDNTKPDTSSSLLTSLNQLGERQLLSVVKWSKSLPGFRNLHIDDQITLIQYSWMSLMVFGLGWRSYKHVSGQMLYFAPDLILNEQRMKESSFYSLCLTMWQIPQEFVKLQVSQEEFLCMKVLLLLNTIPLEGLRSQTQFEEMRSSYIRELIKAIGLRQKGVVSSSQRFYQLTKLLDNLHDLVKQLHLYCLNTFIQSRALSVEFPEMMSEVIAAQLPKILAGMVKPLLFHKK
Procedure: as §1, §2, §3, §4, §5, §6, §7, §8, §9, §10, §11, §12, §13, §14

Row | Compound | Emax [1] [%] | antagonism efficacy (PR-A) [1] | Difference of agonism efficacies (PR-A - PR-B) ([1]; indicating PR-A selectivity) [%] | Emax [2] [%] | antagonism efficacy (PR-B) [2] | Difference of agonism efficacies (PR-B - PR-A) [2] [%] | Difference of antagonism efficacies (PR-A - PR-B) ([1]; indicating PR-A selectivity) [%]
1 | C#C[C@]1(O)CCC2C3CCC4=CC(=O)CC[C@@]45CC=C[C@@H](C[C@@]21CC)C35 (stereo partly drawn) [13-ethyl-9,11-dihydro-17-hydroxy-(11α,17α)-6′H-benzo[10,9,11]-18,19-dinorpregna-4,9(11)-dien-20-yn-3-one] | 129 | none | 21 | 108 | none |  | 
2 | CC(=O)O[C@]1(C(C)=O)CCC2C3C[C@H](C)C4=CC(=O)CC[C@@]45CC=C[C@@H](C[C@@]21C)C35 (stereo partly drawn) [17-(acetyloxy)-9,11-dihydro-6-methyl-(6α,11α)-6H′benzo[10,9,11]-19-norpregna-4,9(11)-diene-3,20-dione] | 50 | none |  | 90 | none | 40 | 
3 | CC(CC(O)(CNc1ccc2c(c1)COC2=O)C(F)(F)F)c1ccccc1 (stereo not shown) [5-{[2-hydroxy-4-phenyl-2-(trifluoromethyl)pentyl]amino}-1(3H)-isobenzofiuranone] | 39.9 | none |  | 56.8 | none | 17 | 
4 | O=C1OCc2cc(NC(=O)C(O)(CC3(c4cccc(Br)c4)CC3)C(F)(F)F)ccc21 (stereo not drawn) [1-(3-bromophenyl)-N-(1,3-dihydro-1-oxo-5-isobenzofuranyl)-α-hydroxy-α-(trifluoromethyl)-cyclopropanepropanamide] | 81 | none |  | 106 | none | 25 | 
5 | CC(=O)O[C@]1(C(C)=O)CCC2C3C=C(Cl)C4=CC(=O)CC[C@@]45CC[C@@H](C[C@@]21C)C35 (stereo partly drawn) [17-(acetyloxy)-6-chloro-9,11-dihydro-(11α)-cyclopenta[10,9,11]-19-norpregna-4,6,9(11)-triene-3,20-dione] | 29 | 45% |  | 50 | 30% | 21 | 15
6 | C#C[C@]1(O)C=CC2C3CCC4=CC(=O)CC[C@@]45CCC=C(C[C@@]21CC)C35 (stereo partly drawn) [13-ethyl-5α,9-dihydro-17-hydroxy-(17α)-6′H-benzo[10,9,11]-18,19-dinorpregna-4,9(11),15-trien-20-yn-3-one] | 85 | none |  | 108 | none | 23 | 
7 | CC(=O)O[C@]1(C(C)=O)CC[C@H]2[C@@H]3C=C(C)C4=CC(=O)CC[C@]4(C)[C@H]3CC[C@@]21C [17-acetoxy-6-methyl-4,6-pregnadiene-3,20-dione] | 35 | none |  | 81 | none | 46 | 
8 | C=C[C@]1(O)CCC2C3CCC4=CC(=O)CC[C@@]45CC=C[C@@H](C[C@@]21CC)C35 (stereo partly drawn) [13-ethyl-9,11-dihydro-17-hydroxy-(11α,17α)-6′H-benzo[10,9,11]-18,19-dinorpregna-4,9(11),20-trien-3-one] | 132 | none | 24 | 108 | none |  | 
9 | C#C[C@]1(O)C=CC2C3CCC4=CC(=O)CC[C@@]45CC=C[C@@H](C[C@@]21C)C35 (stereo partly drawn) [9,11-dihydro-17-hydroxy-(11α,17α)-6′H-benzo[10,9,11]-19-norpregna-4,9(11), 15-trien-20-yn-3-one] | 131 | none | 17 | 114 | none |  | 
